Measured values as given in patent US7504400B2, “MTP inhibiting aryl piperydines or piperazines substituted with 5-membered heterocycles” (Janssen Pharmaceutica N.V., priority 2004, dated 2009).

System: Secretion of ApoB
Assay: Quantification of the secretion of ApoB in HepG2 cells
Assay type: cell-based
Details: Homo sapiens, HepG2, 24 h, 24 hours of incubation with test compound, immunoprecipitation of apoB from medium, read-out: pIC50 value (=-log IC50 value), secretion of ApoB (converted)
Procedure: HepG2 cells were cultured in 24-well plates in MEM Rega 3 containing 10% fetal calf serum. At 70% confluency, the medium was changed and the test compound or carrier (DMSO, 0.4% final concentration) was added. After 24 hours of incubation, the medium was transferred to Eppendorf tubes and cleared by centrifugation. A sheep antibody directed against either apoB was added to the supernatant and the mixture was kept at 8° C. for 24 hours. Then, rabbit anti-sheep antibody was added and the immune complex was allowed to precipitate for 24 hours at 8° C. The immunoprecipitate was pelleted by centrifugation for 25 minutes at 1320 g and washed twice with a buffer containing 40 mM Mops, 40 mM NaH2PO4, 100 mM NaF, 0.2 mM DTT, 5 mM EDTA, 5 mM EGTA, 1% Triton-X-100, 0.5% sodium deoxycholate (DOC), 0.1% SDS, 0.2 μM leupeptin and 0.2 μM PMSF. Radioactivity in the pellet was quantified by liquid scintillation-counting. The IC50 values are usually converted to pIC50 values (=−log IC50 value) for ease of use.

Row | IC50 | SMILES
1 | 31.6 to 316 nM | CCOC(=O)[C@H](c1ccccc1)N1CCN(c2ccc(-n3ccn([C@H](C)c4ccccc4F)c3=O)cc2)CC1 (stereo in doubt) [Compound 271]
2 | 31.6 to 316 nM | CCC(C)n1ncn(-c2ccc(N3CCN(C(C(=O)NC(C)C)c4ccccc4)CC3)cc2)c1=O (stereo not shown) [Compound 21]
3 | 316 to 3160 nM | COCCNC(=O)C(c1ccccc1)N1CCN(c2ccc(-n3ncn(C(C)C)c3=O)cc2)CC1 (stereo not shown) [Compound 117]
4 | 31.6 to 316 nM | CC(C)n1ncn(-c2ccc(N3CCN(C(C(=O)NCc4ccccc4)c4ccccc4)CC3)nc2)c1=O (stereo not shown) [Compound 48]
5 | 316 to 3160 nM | CCOC(=O)c1ccc(CNC(=O)C(Cc2ccccc2)C2CCN(c3ccc(-n4cnn(C(C)C)c4=O)cc3)CC2)cc1C (stereo not shown) [Compound 380]
6 | 31.6 to 316 nM | CCOC(=O)[C@H](c1ccccc1)N1CCN(c2ccc(-n3ccn([C@H](C)c4ccc(C(F)(F)F)cc4)c3=O)cc2)CC1 (relative stereo) [Compound 270]
7 | 316 to 3160 nM | COC(=O)c1cccc(CNC(=O)C(c2ccccc2)N2CCN(c3ccc(-n4ccn(C(C)C)c4=O)c(C)c3)CC2)c1 (stereo not shown) [Compound 290]
8 | 316 to 3160 nM | COC(=O)C(c1cccc(Cl)c1)N1CCC(c2ccc(-n3cnn(C(C)C)c3=O)cc2)CC1 (stereo not shown) [Compound 320]
9 | 31.6 to 316 nM | CCOC(=O)[C@H](c1ccccc1)N1CCN(c2ccc(-n3ccn(C(C)c4cc(F)ccc4F)c3=O)cc2)CC1 (stereo in doubt) [Compound 340]
10 | 31.6 to 316 nM | CCOC(=O)C(c1ccccc1)C1CCN(c2ccc(-n3ccn([C@H](C)c4ccccc4)c3=O)cc2)CC1 (stereo partly shown) [Compound 247]
11 | 316 to 3160 nM | CC(C)n1ncn(-c2ccc(N3CCN(C(C(=O)NCCCN(C)c4ccccc4)c4ccccc4)CC3)cc2)c1=O (stereo not shown) [Compound 84]
12 | 31.6 to 316 nM | CC(C)n1ncn(-c2ccc(N3CCN(C(C(=O)Nc4ccc5c(c4)-c4ccccc4C5)c4ccccc4)CC3)cc2)c1=O (stereo not shown) [Compound 197]
13 | < 31.6 nM | CCOC(=O)c1cc(CNC(=O)C(c2ccccc2)C2CCN(c3ccc(-n4cnn(C(C)c5ccccc5)c4=O)cc3)CC2)ccc1C (stereo not shown) [Compound 381]
14 | 31.6 to 316 nM | COC(=O)c1ccccc1CNC(=O)C(c1ccccc1)N1CCN(c2ccc(-n3ccn(C(C)C)c3=O)c(C)c2)CC1 (stereo not shown) [Compound 289]
15 | 31.6 to 316 nM | CCOC(=O)c1cc(NC(=O)C(c2ccccc2)C2CCN(c3ccc(-n4cnn(C(C)c5ccccc5)c4=O)cc3)CC2)ccc1C (stereo not shown) [Compound 369]
16 | 316 to 3160 nM | COC(=O)c1ccc(CNC(=O)C(c2ccccc2)N2CCN(c3ccc(-n4cnn(C(C)c5ccccc5)c4=O)cc3)CC2)cc1C (stereo not shown) [Compound 287]
17 | 31.6 to 316 nM | CCOC(=O)c1ccc(CNC(=O)C(c2ccccc2)C2CCN(c3ccc(-n4cnn(C(C)c5ccccc5)c4=O)cc3)CC2)cc1C (stereo not shown) [Compound 375]
18 | 316 to 3160 nM | CC(C)n1ncn(-c2ccc(C3CCN(C(C(=O)N(C)C)c4ccccc4)CC3)cc2)c1=O (stereo not shown) [Compound 144]
19 | 31.6 to 316 nM | CCNC(=O)C(c1ccccc1)N1CCN(c2ccc(-n3cnn(C(C)C)c3=O)cc2)CC1 (stereo not shown) [Compound 163]
20 | 31.6 to 316 nM | CCOC(=O)C(c1ccccc1)N1CCC(c2ccc(-n3ccn(C(C)c4ccccc4)c3=O)cc2)CC1 (stereo not shown) [Compound 221]
21 | 316 to 3160 nM | CCOC(=O)[C@@H](c1ccccc1)N1CCN(c2ccc(-n3cnn([C@H](C)c4ccc(F)cc4)c3=O)cc2)CC1 (relative stereo) [Compound 298]
22 | 316 to 3160 nM | CCOC(=O)C(c1ccccc1)N1CCC(c2ccc(-n3ccn([C@@H](C)c4cccc5ccccc45)c3=O)cc2)CC1 (stereo partly shown) [Compound 226]
23 | 316 to 3160 nM | CCOC(=O)C(c1ccccc1)N1CCC(c2ccc(-n3ccn([C@@H](C)c4ccccc4F)c3=O)cc2)CC1 (stereo partly shown) [Compound 279]
24 | 316 to 3160 nM | COC(=O)c1ccc(CNC(=O)C(c2ccccc2)N2CCN(c3ccc(-n4ccn(C(C)C)c4=O)c(C)c3)CC2)cc1 (stereo not shown) [Compound 293]
25 | 316 to 3160 nM | CCCCCn1ncn(-c2ccc(N3CCC(C(C(=O)NC(C)C)c4ccccc4)CC3)cc2)c1=O (stereo not shown) [Compound 89]

Row | IC50 | SMILES
26 | 316 to 3160 nM | COC(=O)CCc1csc(NC(=O)C(c2ccccc2)N2CCC(c3ccc(-n4cnn(C(C)C)c4=O)cc3)CC2)n1 (stereo not shown) [Compound 352]
27 | 316 to 3160 nM | CC(C)n1ncn(-c2ccc(N3CCN(CC(C(=O)NC4CC4)c4ccccc4)CC3)cc2)c1=O (stereo not shown) [Compound 104]
28 | 31.6 to 316 nM | CCOC(=O)C(c1ccccc1)C1CCN(c2ccc(-n3ccn([C@H](C)c4ccc(C)cc4)c3=O)cc2)CC1 (stereo partly shown) [Compound 253]
29 | 31.6 to 316 nM | CCCCNC(=O)C(CN1CCN(c2ccc(-n3cnn(C(C)C)c3=O)cc2)CC1)c1ccccc1 (stereo not shown) [Compound 106]
30 | 31.6 to 316 nM | COc1ccc(CNC(=O)C(c2ccccc2)N2CCN(c3ccc(-n4cnn(C(C)C)c4=O)cc3)CC2)c(OC)c1 (stereo not shown) [Compound 97]
31 | 316 to 3160 nM | CCCNC(=O)C(c1ccccc1)C1CCN(c2ccc(-n3cnn(CCC)c3=O)cc2)CC1 (stereo not shown) [Compound 149]
32 | 316 to 3160 nM | CC(C)n1ncn(-c2ccc(N3CCN(C(C(=O)NCc4nc5ccccc5[nH]4)c4ccccc4)CC3)cc2)c1=O (stereo not shown) [Compound 127]
33 | 31.6 to 316 nM | CCCCCn1ncn(-c2ccc(N3CCC(C(C(=O)NCc4ccccc4)c4ccccc4)CC3)cc2)c1=O (stereo not shown) [Compound 157]
34 | 316 to 3160 nM | COC(=O)CC1CCN(c2ccc(-n3ccn(C(C)c4ccccc4)c3=O)cc2)CC1 (stereo not shown) [Compound 264]
35 | 316 to 3160 nM | CCOC(=O)[C@H](CC(C)C)NC(=O)CC1CCN(c2ccc(-n3cnn(C(C)c4ccccc4)c3=O)cc2)CC1 (stereo partly shown) [Compound 398]
36 | 31.6 to 316 nM | CC(C)n1ncn(-c2ccc(N3CCN(CC(C(=O)NCC(F)(F)F)c4ccccc4)CC3)cc2)c1=O (stereo not shown) [Compound 98]
37 | 316 to 3160 nM | CCOC(=O)[C@@H](Cc1ccccc1)NC(=O)CC1CCN(c2ccc(-n3cnn(C(C)c4ccccc4)c3=O)cc2)CC1 (stereo partly shown) [Compound 396]
38 | 316 to 3160 nM | CCCC(C(=O)OCC)N1CCN(c2ccc(-n3cnn(C(C)C)c3=O)cc2)CC1 (stereo not shown) [Compound 9]
39 | 31.6 to 316 nM | COc1cc(NC(=O)C(c2ccccc2)N2CCN(c3ccc(-n4cnn(C(C)C)c4=O)cc3)CC2)cc(C(F)(F)F)c1 (stereo not shown) [Compound 64]
40 | 316 to 3160 nM | COCCNC(=O)C(c1ccccc1)N1CCN(c2ccc(-n3cnn(C(C)C)c3=O)cn2)CC1 (stereo not shown) [Compound 4]
41 | 31.6 to 316 nM | CCOC(=O)C(c1ccccc1)C1CCN(c2ccc(-n3ccn([C@H](C)c4ccc(Br)cc4)c3=O)cc2)CC1 (stereo partly shown) [Compound 249]
42 | 31.6 to 316 nM | COC(=O)C(c1ccc(Cl)cc1Cl)N1CCN(c2ccc(-n3cnn(C(C)C)c3=O)cc2)CC1 (stereo not shown) [Compound 328]
43 | 316 to 3160 nM | CC(C)n1cnn(-c2ccc(N3CCN(C(C(=O)NCc4ccccn4)c4ccccc4)CC3)cc2)c1=O (stereo not shown) [Compound 121]
44 | 31.6 to 316 nM | CC(C)n1cnn(-c2ccc(N3CCN(C(C(=O)NCc4ccccc4)c4ccccc4)CC3)cc2)c1=O (stereo not shown) [Compound 123]
45 | 316 to 3160 nM | CCCOC(=O)C(c1ccccc1)N1CCN(c2ccc(-n3cnn(C(C)C)c3=O)cc2)CC1 (stereo not shown) [Compound 38]
46 | 316 to 3160 nM | CC(C)n1ncn(-c2ccc(N3CCN(C(C(=O)Nc4ccccc4O)c4ccccc4)CC3)cc2)c1=O (stereo not shown) [Compound 56]
47 | 316 to 3160 nM | COC(=O)C(CCN1CCN(c2ccc(-n3cnn(C(C)C)c3=O)cc2)CC1)c1ccccc1 (stereo not shown) [Compound 169]
48 | 316 to 3160 nM | COC(=O)C(c1ccccc1)N1CCN(c2ccc(-n3c(-c4ccccc4)nn(C(C)C)c3=O)cc2)CC1 (stereo not shown) [Compound 35]
49 | 316 to 3160 nM | CC(c1ccccc1)n1ncn(-c2ccc(N3CCN(C(C(=O)Nc4ccc5c(c4)CCC5)c4ccccc4)CC3)cc2)c1=O (stereo not shown) [Compound 208]
